Experimental findings from patent US20250304990A1, “HERBICIDE RESISTANCE” (SYNGENTA CROP PROTECTION AG, priority 2021, published 2025) are described below.

The structures appear in SMILES notation. A value given as a limit tells only on which side of the number the result lay.

Common to all, as to assay: Dose response test, growth in 96-well plates
Holding throughout (type): cell-based, Chlorella fusca

Experiment [1] has as its system Cf-496-2. The settings on record: strain Cf-496-2; no growth, visual inspection.
Experiment [2] deals with Cf-496-75. The settings on record: strain Cf-496-75; no growth, visual inspection.
The subject of experiment [3] is Cf-496-28. The settings on record: strain Cf-496-28 (V276A); no growth, visual inspection. How it is done:
(§1) Dose response tests with B5U were set-up in 96-well, flat bottomed plates. 200 μl medium was used in each well. 2 μl of 6 day old culture was added to each well, then 2 μl of DMSO or dilution of test compound were added to respective wells. 2-fold dilutions starting at 100 ppm were used per well. Plates were incubated at 25° C., 50 μmol/m^2/s, 16 hour photoperiod.
(§2) This was assessed by a visual inspection of growth in the 96-well plate. The inhibitor concentration at which no growth is observed is then defined as the LD.
(§3) Starting dose was 100 ppm and decreasing with 2-fold dilutions with C. fusca wt, the five HST mutants and the 10 compounds to which the wt is sensitive. Plates were incubated at 25° C., 50 μmol/m2/s, 16 hour photoperiod.

Experiment [4] concerns Cf-496-8. Particulars: strain Cf-496-8 (M278L & F279I); no growth, visual inspection. How it is done:
as §1, §2, §3

Experiment [5] relates to Cf WT. The settings on record: strain Cf WT; concentration at which no growth is observed, visual inspection. How it is done:
as §1, §2, §3

Experiment [6] deals with Cf-496-19. Particulars: strain Cf-496-19 (F275I); no growth, visual inspection. As for the experimental part:
as §1, §2, §3

The test system of experiment [7] is Cf-496-15. The settings on record: strain Cf-496-15 (T277N); no growth, visual inspection. As for the experimental part: as §1, §2, §3
Experiment [8] has as its system Cf-496-94. Particulars: strain Cf-496-94 (F275L); no growth, visual inspection. How it is done:
as §1, §2, §3

The test system of experiment [9] is Cf-496-6. Particulars: strain Cf-496-6; no growth, visual inspection.
Experiment [10] relates to Cf-496-85. Particulars: strain Cf-496-85; no growth, visual inspection. As for the experimental part: as §1, §2
Experiment [11] relates to Cf-496-65. The settings on record: strain Cf-496-65; no growth, visual inspection. As for the experimental part:
as §1, §2

In experiment [12] the test system is Cf-496-82. The settings on record: strain Cf-496-82; no growth, visual inspection. As for the experimental part:
as §1, §2

Experiment [13] deals with Cf-496-35. The settings on record: strain Cf-496-35; no growth, visual inspection. As for the experimental part:
as §1, §2

For experiment [14], the system named is Cf-496-78. Particulars: strain Cf-496-78 (F275I); no growth, visual inspection. How it is done: as §1, §2
For experiment [15], the system named is Cf-496-97. The settings on record: strain Cf-496-97; no growth, visual inspection. How it is done:
as §1, §2

The test system of experiment [16] is Cf-496-88. The settings on record: strain Cf-496-88; no growth, visual inspection. How it is done: as §1, §2
In experiment [17] the test system is Cf-496-54. Particulars: strain Cf-496-54; no growth, visual inspection. How it is done: as §1, §2
The subject of experiment [18] is Cf-496-13. The settings on record: strain Cf-496-13; no growth, visual inspection. How it is done: as §1, §2
Experiment [19] deals with Cf-496-90. Particulars: strain Cf-496-90; no growth, visual inspection. As for the experimental part: as §1, §2
The subject of experiment [20] is Cf-496-51. Particulars: strain Cf-496-51 (F275I); no growth, visual inspection. How it is done:
as §1, §2

The test system of experiment [21] is Cf-496-21. The settings on record: strain Cf-496-21; no growth, visual inspection. How it is done:
as §1, §2

Experiment [22] deals with Cf-496-47. The settings on record: strain Cf-496-47; no growth, visual inspection.

Regarding `Cc1nn(C)c(=O)c(-c2c(F)ccc(Cl)c2CCc2ccc(C(F)(F)F)cc2)c1OC(=O)C(C)C` [B5u, [5-[3-chloro-6-fluoro-2-[2-[4-(trifluoromethyl)phenyl]ethyl]phenyl]-1,3-dimethyl-6-oxo-pyridazin-4-yl]2-methylpropanoate], the “LD (lethal dose)” value in experiment [1] was 6.25 ppm; in [2], 6.25 ppm; in [3] it was above 100 ppm; in experiment [4] it was above 100 ppm; in experiment [5] it was 6.25 ppm; in [6], above 100 ppm. Further, the “LD (lethal dose)” value in experiment [7], in experiment [8], in [9], in experiment [10], in [11] and in [12] was above 100 ppm in each case. The “LD (lethal dose)” value is reported as above 100 ppm in experiment [13]; above 100 ppm in experiment [14]; above 100 ppm in [15]; above 100 ppm in [16]; above 100 ppm in [17]; 6.25 ppm in experiment [18]. The “LD (lethal dose)” value in [19], in experiment [20], in [21] and in [22] was above 100 ppm in each case.
